Laboratory results taken from the OPERA property sets (Mansouri et al. 2018).

Compound	log10 Koc (L/kg)	log10 vapour pressure (mmHg)	melting point [°C]	log10 Henry constant (atm·m³/mol)	log10 Koa	boiling point [°C]	ready biodegradability
CON(C)C(=O)Nc1ccc(Br)cc1	2.1	-5.52	95	–	–	–	–
Clc1ccc(Cl)c(-c2cc(Cl)c(Cl)cc2Cl)c1	5.22	-4.6	–	-4.05	9.06	–	–
FC(Cl)CCl (centres undefined)	–	–	-60	–	–	73.7	–
Cc1cc(C)c([N+](=O)[O-])cc1C	–	–	71	–	–	265	–
Cc1cccc(N(C)C)c1	–	–	–	–	–	212	–
CCCCCCCCCS	–	-0.881	-20.1	–	–	220	–
CCN(CC)C(=O)N1CCN(C)CC1	–	–	48	–	–	–	–
CC(Cl)C(C)(C)Cl (centres undefined)	–	–	–	–	–	129	–
CCCCC(C)Cl (centres undefined)	–	1.13	–	–	–	122	–
C[C@H]1[C@H]2CC[C@H]3[C@@H]4CC=C5C[C@@H](N(C)C)CC[C@]5(C)[C@H]4CC[C@]23CN1C	–	–	126	–	–	–	–
CCC(=O)c1ccccc1	–	-0.77	18.6	–	–	218	readily biodegradable
C1CCC(OC2CCCCC2)CC1	–	–	-36	–	–	242	–
CCCCc1nc(Cl)c(CO)n1Cc1ccc(-c2ccccc2-c2nnn[nH]2)cc1	–	–	184	–	–	–	–
Cc1ccc(CC(C)C)cc1	–	–	–	–	–	196	–
O=C(O)CCc1c[nH]c2ccccc12	–	–	134	–	–	–	–
O=C(O)c1cccc(Cl)c1	–	–	158	–	–	–	readily biodegradable
C[C@@H](CN1CC(=O)NC(=O)C1)N1CC(=O)NC(=O)C1	–	–	238	–	–	–	–
COc1cccc(C=O)c1	–	–	–	–	–	231	readily biodegradable
CC(O)CCCCO (centres undefined)	–	–	–	–	–	237	–
CCOC(=O)CCCCCCCC(=O)OCC	–	–	-18.5	–	–	292	–
O=C1OC(=O)c2cc(Cl)c(Cl)cc21	–	–	188	–	–	313	–

Compound	log10 Koc (L/kg)	log10 vapour pressure (mmHg)	melting point [°C]	log10 Henry constant (atm·m³/mol)	log10 Koa	boiling point [°C]	ready biodegradability
CC(C(=O)O)c1ccc(C(=O)c2ccccc2)s1 (centres undefined)	–	–	96	–	–	–	–
O=c1ccc2cc3ccoc3cc2o1	–	–	164	–	–	–	–
CC(=O)Nc1ccccc1-c1ccccc1	–	–	121	–	–	355	–
C=C(CCl)CCl	–	–	-14	–	–	138	–
CC(C)Nc1nc(N)nc(Cl)n1	–	–	133	–	–	–	–
CCCCCCCC(=O)NO	–	–	78.8	–	–	–	–
O=Cc1ccc([N+](=O)[O-])cc1[N+](=O)[O-]	–	–	72	–	–	–	–
BrCc1ccc2ccccc2c1	–	–	56	–	–	–	–
O=C(O)c1ccc(F)cc1F	–	–	189	–	–	–	–
C[C@]12C=CC(=O)C=C1CC[C@@H]1[C@@H]2CC[C@]2(C)OC(=O)CC[C@@H]12	–	–	218	–	–	–	–
C=CCCC=O	–	–	–	–	–	99	–
CCC[N+](=O)[O-]	–	1	-108	-4.06	3.25	131	–
CCCCCCCCCCCCSCCC(=O)OCC(COC(=O)CCSCCCCCCCCCCCC)(COC(=O)CCSCCCCCCCCCCCC)COC(=O)CCSCCCCCCCCCCCC	–	–	–	–	–	–	not readily biodegradable
C[Si]1(C)O[Si](C)(C)O[Si](C)(C)O[Si](C)(C)O1	–	0.0212	17.5	1.08	–	176	–
CC(C)CC(N)=O	–	–	137	–	–	226	–
Nc1ccc([N+](=O)[O-])cc1Cl	–	–	108	-8.02	–	–	not readily biodegradable
CCC(C)=NO[Si](C)(ON=C(C)CC)ON=C(C)CC	–	–	–	–	–	–	not readily biodegradable
ClC(Cl)(Cl)c1ccccc1	–	-0.383	-5	–	–	221	readily biodegradable
Cc1cccc(CN)c1	–	–	–	–	–	204	–
OCc1ccc2ccccc2c1	–	–	81.3	–	–	–	–
CCCCSSCCCC	–	-1.2	–	–	–	–	–

Compound	log10 Koc (L/kg)	log10 vapour pressure (mmHg)	melting point [°C]	log10 Henry constant (atm·m³/mol)	log10 Koa	boiling point [°C]	ready biodegradability
c1ccc(Oc2nc(Oc3ccccc3)nc(Oc3ccccc3)n2)cc1	–	–	234	–	–	–	–
CCOCCC(OCC)OCC	–	–	53	–	–	185	–
CC(C)NCc1ccccc1	–	–	–	–	–	200	–
CCc1ccc([N+](=O)[O-])cc1	–	–	-12.3	–	–	246	–
Cc1c(Br)cc(Br)cc1Br	–	–	70	–	–	290	–
C/C=C/CCC	–	–	-98	–	–	66.5	–
CN(C)[C@@H]1C(O)=C(C(N)=O)C(=O)[C@@]2(O)C(O)=C3C(=O)c4c(O)cccc4[C@@](C)(O)[C@H]3[C@H](O)[C@@H]12	–	–	184	–	–	–	–
OCCCCCCCCl	–	–	11	–	–	–	–
COC(=O)c1c(C)cc(OC(=O)c2c(C)cc(O)c(C=O)c2O)c(C)c1O	–	–	195	–	–	–	–
CCCC(C)(CC)CC	–	–	–	–	–	141	–
Oc1ccccc1C1CCCC1	–	–	34.5	–	–	–	–
COC(=O)C1(S(=O)(=O)c2ccc(Cl)cc2)CCC1	–	–	76.2	–	–	–	–
O=[N+]([O-])c1ccc(O)cc1	2.37	-4.01	114	-9.38	–	279	not readily biodegradable
O=[N+]([O-])c1ccc(Cl)c(C(F)(F)F)c1	–	–	22	–	–	232	–
C=NCC#N	–	–	129	–	–	–	–
O=C(O)c1cc(=O)cc(C(=O)O)o1	–	–	262	–	–	–	–
O=C1CCC1	–	1.63	-50.9	–	–	99	–
O=C(C=Cc1ccccc1)OCc1ccccc1	–	-5	39	–	–	350	–
CNc1cccc(C)c1	–	–	–	–	–	206	not readily biodegradable
